From patent US20260176320A1, “MODULATORS OF G-PROTEIN COUPLED RECEPTORS” (priority 2018, published 2026)
Like-named read-outs stand apart in the source and are kept apart here.

Legend:
[1] = test system: mice; test: Glucose tolerance test (GTT); assay type: in vivo, mouse; conditions: 24 h GTT, s.c., percent of vehicle
Protocol: Freestyle Lite glucometer and strips; compounds to be tested; sterilized glucose solution 200 mg/ml.
Compounds were diluted in PBS from the 1 mM DMSO stocks right before injection. Body weight and baseline blood glucose level for each mouse were measured. Tails were snipped using sterile scissors; blood from tails was used to measure glucose. For 0.25 h GTT, mice were fasted for 5-6 h and injected with compound subcutaneously 15 mins before glucose injection. For 4 h GTT, mice were fasted O/N for 16 h and injected with compound subcutaneously 4 h before glucose injection. For 16 h GTT, mice were injected with compound subcutaneously 16 h before glucose injection; food was removed at the same time. For 24 h GTT, mice were injected with compound subcutaneously 24 h before glucose injection; food was removed 5-6 h before glucose injection. 20% glucose in water was prepared; the solution was sterilized by 0.2 μm-filtration. An intraperitoneal injection of glucose (2 g/kg) was given to the mouse. Continued to take blood samples from the tail. Blood glucose was measured at 10, 20, 30, 40, 60, 90, and 120 minutes after glucose injection. Between each of these time points, the mouse was returned to its cage and monitored (at least 6 replicate mice were used for each time-point). The average glucose measurements were plotted as a function of time and the area under the curve (AUC) was determined.

[2] = biological target: T1, GIP-R (Homo sapiens, UniProt P48546); test: HitHunter cAMP assay (GIP-R); assay type: cell-based; conditions: cAMP; for Emax: read-out: (Emax) GIP-R
T1 sequence (P48546 22-466): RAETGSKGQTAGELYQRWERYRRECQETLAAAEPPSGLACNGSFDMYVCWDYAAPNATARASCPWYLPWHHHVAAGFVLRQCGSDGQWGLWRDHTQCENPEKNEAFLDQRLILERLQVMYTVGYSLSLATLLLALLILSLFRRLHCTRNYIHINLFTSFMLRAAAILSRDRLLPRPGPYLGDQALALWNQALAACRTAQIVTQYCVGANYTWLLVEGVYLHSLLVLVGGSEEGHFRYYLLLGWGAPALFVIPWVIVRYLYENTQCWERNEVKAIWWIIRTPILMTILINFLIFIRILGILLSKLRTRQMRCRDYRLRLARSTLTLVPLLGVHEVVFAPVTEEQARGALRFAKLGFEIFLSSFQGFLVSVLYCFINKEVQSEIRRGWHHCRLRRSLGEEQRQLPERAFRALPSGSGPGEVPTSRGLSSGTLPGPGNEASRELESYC
How it was run: (§1)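 cAMP accumulation read by luminescent HitHunter immunocompetition after 30 min room-temperature agonist stimulation. Agonists tested as 22-point twofold dilutions, in duplicate, on 10,000 cells/well in HBSS containing 625 μM IBMX, 10 mM HEPES and 0.2% BSA.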

[3] = biological target: T2, GLP-1R (Homo sapiens, UniProt P43220); test: PathHunter β-arrestin assay; assay type: cell-based
How it was run: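 β-Arrestin recruitment measured by PathHunter enzyme-fragment luminescence, read after 3 h dark incubation at room temperature with detection solution. Beforehand, agonist in a 22-point 2-fold series was applied in duplicate for 90 min at 37 °C to 5,000 cells/well in BSA-containing (0.2%) medium.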

[4] = biological target: T2, GLP-1R; test: HitHunter cAMP assay (GLP-1R); assay type: cell-based; conditions: cAMP; for Emax: read-out: (Emax) GLP-1R
How it was run: as §1

[5] = Table 3, read-out: EC50 GIP-R/nM
[6] = Table 3A, read-out: EC50 GIP-R/nM
[7] = PathHunter β-arrestin assay, read-out: β-arrestin activity EC50
[8] = Table 3, read-out: EC50 GLP-1R/nM
[9] = Table 3A, read-out: EC50 GLP-1R/nM

T2 sequence (P43220 24-463): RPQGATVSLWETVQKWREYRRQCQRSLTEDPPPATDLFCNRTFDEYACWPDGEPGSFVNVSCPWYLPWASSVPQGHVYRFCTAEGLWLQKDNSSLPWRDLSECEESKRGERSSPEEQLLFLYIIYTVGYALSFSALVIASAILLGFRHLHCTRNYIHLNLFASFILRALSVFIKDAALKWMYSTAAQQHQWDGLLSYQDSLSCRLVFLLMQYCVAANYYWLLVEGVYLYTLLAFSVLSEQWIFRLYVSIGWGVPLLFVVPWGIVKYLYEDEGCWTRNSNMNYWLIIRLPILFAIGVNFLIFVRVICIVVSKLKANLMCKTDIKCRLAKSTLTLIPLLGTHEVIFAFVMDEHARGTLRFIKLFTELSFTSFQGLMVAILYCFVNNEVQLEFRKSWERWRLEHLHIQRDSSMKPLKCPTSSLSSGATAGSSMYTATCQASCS

SMILES | AUC score ([1]; dose range 2-5 nmol/kg) | Emax ([2]; Table 3) | EC50 [2, 5] | Emax ([2]; Table 3A) | EC50 [2, 6] | EC50 [3, 7] | Emax ([4]; Table 3) | EC50 [4, 8] | Emax ([4]; Table 3A) | EC50 [4, 9] | AUC score ([1]; dose range 5.1-15 nmol/kg) | EC50 ([2]; EC50 GIP-R/nM, Table 3) | EC50 ([2]; EC50 GIP-R/nM, Table 3A) | EC50 [3] | EC50 ([4]; EC50 GLP-1R/nM, Table 3) | EC50 ([4]; EC50 GLP-1R/nM, Table 3A) | Emax at 1 µM ([2]; read-out: (Emax) GIP-R at 1 μM, Table 3, at 1 μM)
CCCCCCCCCCCCCCCC(=O)N[C@@H](CCC(=O)NCCCC[C@H](NC(=O)[C@H](CO)NC(=O)[C@@H]1CCCN1C(=O)[C@@H]1CCCN1C(=O)[C@@H]1CCCN1C(=O)[C@H](C)NC(=O)CNC(=O)[C@H](CO)NC(=O)[C@H](CO)NC(=O)[C@@H]1CCCN1C(=O)CNC(=O)CNC(=O)[C@H](C)NC(=O)[C@H](CC(C)C)NC(=O)[C@H](CC(C)C)NC(=O)[C@H](Cc1c[nH]c2ccccc12)NC(=O)[C@H](CC(N)=O)NC(=O)[C@@H](NC(=O)[C@H](Cc1ccccc1)NC(=O)[C@H](CCC(=O)O)NC(=O)C(C)(C)NC(=O)[C@H](C)NC(=O)[C@H](C)NC(=O)[C@H](CCC(N)=O)NC(=O)[C@H](CCCCN)NC(=O)[C@H](CC(=O)O)NC(=O)[C@H](CC(C)C)NC(=O)[C@H](Cc1ccc(O)cc1)NC(=O)[C@@H](NC(=O)[C@H](CO)NC(=O)[C@H](Cc1ccc(O)cc1)NC(=O)[C@H](CC(=O)O)NC(=O)[C@H](CO)NC(=O)[C@@H](NC(=O)[C@H](Cc1ccccc1)NC(=O)[C@@H](NC(=O)CNC(=O)[C@H](CCC(=O)O)NC(=O)CSCC(=O)NCCN1CCC(C)C1=O)[C@@H](C)O)[C@@H](C)O)[C@@H](C)CC)C(C)C)C(N)=O)C(=O)O (single isomer, unassigned) [Compound 68] | 2 (AUC score 2 = 26-50%) | 87% | 0.1 to 1 nM | 87% | 0.1 to 1 nM | > 1000 nM | 109% | 0.1 to 1 nM | 109% | 0.1 to 1 nM | – | – | – | – | – | – | –
CCCCCCCCCCCCCCCC(=O)N[C@@H](CCC(=O)NCCCC[C@H](NC(=O)[C@H](CO)NC(=O)[C@@H]1CCCN1C(=O)[C@@H]1CCCN1C(=O)[C@@H]1CCCN1C(=O)[C@H](C)NC(=O)CNC(=O)[C@H](CO)NC(=O)[C@H](CO)NC(=O)[C@@H]1CCCN1C(=O)CNC(=O)CNC(=O)[C@H](C)NC(=O)[C@H](CC(C)C)NC(=O)[C@H](CC(C)C)NC(=O)[C@H](Cc1c[nH]c2ccccc12)NC(=O)[C@H](CC(N)=O)NC(=O)[C@@H](NC(=O)[C@H](Cc1ccccc1)NC(=O)[C@H](CCC(=O)O)NC(=O)C(C)(C)NC(=O)[C@H](C)NC(=O)[C@H](C)NC(=O)[C@H](CCC(N)=O)NC(=O)[C@H](CCCCN)NC(=O)[C@H](CC(=O)O)NC(=O)[C@H](CC(C)C)NC(=O)[C@H](Cc1ccc(O)cc1)NC(=O)[C@@H](NC(=O)[C@H](CO)NC(=O)[C@H](Cc1ccc(O)cc1)NC(=O)[C@H](CC(=O)O)NC(=O)[C@H](CO)NC(=O)[C@@H](NC(=O)[C@H](Cc1ccccc1)NC(=O)[C@@H](NC(=O)CNC(=O)[C@H](CCC(=O)O)NC(=O)CSCC(=O)NCCN1CCOCC1=O)[C@@H](C)O)[C@@H](C)O)[C@@H](C)CC)C(C)C)C(N)=O)C(=O)O [Compound 32] | 2 (AUC score 2 = 26-50%) | 65% | 1 to 10 nM | 65% | 1 to 10 nM | > 1000 nM | 103% | < 0.1 nM | 103% | < 0.1 nM | – | – | – | – | – | – | –
CCCCCCCCCCCCCCCC(=O)N[C@@H](CCC(=O)NCCCC[C@H](NC(=O)[C@H](CO)NC(=O)[C@@H]1CCCN1C(=O)[C@@H]1CCCN1C(=O)[C@@H]1CCCN1C(=O)[C@H](C)NC(=O)CNC(=O)[C@H](CO)NC(=O)[C@H](CO)NC(=O)[C@@H]1CCCN1C(=O)CNC(=O)CNC(=O)[C@H](C)NC(=O)[C@H](CC(C)C)NC(=O)[C@H](CC(C)C)NC(=O)[C@H](Cc1c[nH]c2ccccc12)NC(=O)[C@H](CC(N)=O)NC(=O)[C@@H](NC(=O)[C@H](Cc1ccccc1)NC(=O)[C@H](CCC(=O)O)NC(=O)C(C)(C)NC(=O)[C@H](C)NC(=O)[C@H](C)NC(=O)[C@H](CCC(N)=O)NC(=O)[C@H](CCCCN)NC(=O)[C@H](CC(=O)O)NC(=O)[C@H](CC(C)C)NC(=O)[C@H](Cc1ccc(O)cc1)NC(=O)[C@@H](NC(=O)[C@H](CO)NC(=O)[C@H](Cc1ccc(O)cc1)NC(=O)[C@H](CC(=O)O)NC(=O)[C@H](CO)NC(=O)[C@@H](NC(=O)[C@H](Cc1ccccc1)NC(=O)[C@@H](NC(=O)CNC(=O)[C@H](CCC(=O)O)NC(=O)CSCC(=O)NCCN1C(=O)C[C@@H](O)C1=O)[C@@H](C)O)[C@@H](C)O)[C@@H](C)CC)C(C)C)C(N)=O)C(=O)O [Compound 79] | – | 77% | – | 77% | – | – | 102% | – | 102% | – | 2 (AUC score 2 = 26-50%) | 0.1 to 1 nM | 0.1 to 1 nM | > 1000 nM | 0.1 to 1 nM | 0.1 to 1 nM | –
CCCCCCCCCCCCCCCC(=O)N[C@@H](CCC(=O)NCCCC[C@H](NC(=O)[C@H](CO)NC(=O)[C@@H]1CCCN1C(=O)[C@@H]1CCCN1C(=O)[C@@H]1CCCN1C(=O)[C@H](C)NC(=O)CNC(=O)[C@H](CO)NC(=O)[C@H](CO)NC(=O)[C@@H]1CCCN1C(=O)CNC(=O)CNC(=O)[C@H](C)NC(=O)[C@H](CC(C)C)NC(=O)[C@H](CC(C)C)NC(=O)[C@H](Cc1c[nH]c2ccccc12)NC(=O)[C@H](CC(N)=O)NC(=O)[C@@H](NC(=O)[C@H](Cc1ccccc1)NC(=O)[C@H](CCC(=O)O)NC(=O)C(C)(C)NC(=O)[C@H](C)NC(=O)[C@H](C)NC(=O)[C@H](CCC(N)=O)NC(=O)[C@H](CCCCN)NC(=O)[C@H](CC(=O)O)NC(=O)[C@H](CC(C)C)NC(=O)[C@H](Cc1ccc(O)cc1)NC(=O)[C@@H](NC(=O)[C@H](CO)NC(=O)[C@H](Cc1ccc(O)cc1)NC(=O)[C@H](CC(=O)O)NC(=O)[C@H](CO)NC(=O)[C@@H](NC(=O)[C@H](Cc1ccccc1)NC(=O)[C@@H](NC(=O)CNC(=O)[C@H](CCC(=O)O)NC(=O)CSCC(=O)NCCN1CC[C@H](O)C1=O)[C@@H](C)O)[C@@H](C)O)[C@@H](C)CC)C(C)C)C(N)=O)C(=O)O [Compound 66] | 2 (AUC score 2 = 26-50%) | 11% | 1 to 10 nM | 11% | 100 to 1000 nM | > 1000 nM | 113% | < 0.1 nM | 113% | < 0.1 nM | – | – | – | – | – | – | –
CCCCCCCCCCCCCCCC(=O)N[C@@H](CCC(=O)NCCCC[C@H](NC(=O)[C@H](CO)NC(=O)[C@@H]1CCCN1C(=O)[C@@H]1CCCN1C(=O)[C@@H]1CCCN1C(=O)[C@H](C)NC(=O)CNC(=O)[C@H](CO)NC(=O)[C@H](CO)NC(=O)[C@@H]1CCCN1C(=O)CNC(=O)CNC(=O)[C@H](C)NC(=O)[C@H](CC(C)C)NC(=O)[C@H](CC(C)C)NC(=O)[C@H](Cc1c[nH]c2ccccc12)NC(=O)[C@H](CC(N)=O)NC(=O)[C@@H](NC(=O)[C@H](Cc1ccccc1)NC(=O)[C@H](CCC(=O)O)NC(=O)C(C)(C)NC(=O)[C@H](C)NC(=O)[C@H](C)NC(=O)[C@H](CCC(N)=O)NC(=O)[C@H](CCCCN)NC(=O)[C@H](CC(=O)O)NC(=O)[C@H](CC(C)C)NC(=O)[C@H](Cc1ccc(O)cc1)NC(=O)[C@@H](NC(=O)[C@H](CO)NC(=O)[C@H](Cc1ccc(O)cc1)NC(=O)[C@H](CC(=O)O)NC(=O)[C@H](CO)NC(=O)[C@@H](NC(=O)[C@H](Cc1ccccc1)NC(=O)[C@@H](NC(=O)CNC(=O)[C@H](CCC(=O)O)NC(=O)CSCC(=O)N1CCNC1=O)[C@@H](C)O)[C@@H](C)O)[C@@H](C)CC)C(C)C)C(N)=O)C(=O)O [Compound 98] | – | – | > 1000 nM | – | > 1000 nM | > 1000 nM | 96% | 0.1 to 1 nM | 96% | 0.1 to 1 nM | 2 (AUC score 2 = 26-50%) | – | – | – | – | – | < 5%
